Laboratory results: patent publication US9139502B2, “Use of an urushiol compound in preparation of pharmaceutical compositions for inhibiting Smad3 phosphorylation” (Southern Hospital, Southern Medical University, priority 2013, dated 2015)

What was measured:
[1] = test system: Smad3-dependent collagen I promoter; assay: Luciferase reporter assay of Smad3-dependent collagen I promoter activity; format: cell-based, rat; conditions: NRK52E cells transfected with p(GAGA)12-luc, GQ-5 0.1, 0.5, 2.5 μM pre-treated 1 h, TGF-β1 10 ng/ml 24 h
[2] = test system: Smad3 phosphorylation; assay: Smad3 phosphorylation in kidney tissue of UUO rats (immunohistochemistry, Western blot); format: in vivo, rat; conditions: GQ-5 40 mg/kg daily i.p. right after or 7 days after UUO, sacrificed day 14
Procedure: Male Sprague-Dawley rats with body weight 200 to 250 g were randomized into 4 groups (n=6 in each group): (1) sham operated rats; (2) UUO rats; (3) UUO+GQ-5 d1 rats; (4) UUO+GQ-5 d7 rats.
GQ-5 was dissolved in 5% propylene glycol.
(3) UUO+GQ-5 d1 rats: daily intraperitoneal injection of GQ-5 (40 mg/kg body weight) right after UUO;
(4) UUO+GQ-5 d7 rats: daily intraperitoneal injection of GQ-5 (40 mg/kg body weight) 7 days after UUO.
UUO was performed using an established protocol as described. GQ-5 was dissolved in 5% propylene glycol. Rats were administrated with GQ-5 as described before. All the rats were sacrificed 14 days after UUO. Immunohistochemical staining and Western blot analyses were performed to examine the Smad3 and Smad2 phosphorylation in kidney tissue.

[3] = target: interaction of Smad3 with TβRI (Rattus norvegicus, UniProt P84025); assay: Immunoprecipitation of Smad3 with TβRI in vitro; format: cell-based; conditions: NRK52E cells, GQ-5 2.5 nM pre-treated 1 h, TGF-β1 10 ng/ml 1 h
Sequence of interaction of Smad3 with TβRI (P84025 whole entry): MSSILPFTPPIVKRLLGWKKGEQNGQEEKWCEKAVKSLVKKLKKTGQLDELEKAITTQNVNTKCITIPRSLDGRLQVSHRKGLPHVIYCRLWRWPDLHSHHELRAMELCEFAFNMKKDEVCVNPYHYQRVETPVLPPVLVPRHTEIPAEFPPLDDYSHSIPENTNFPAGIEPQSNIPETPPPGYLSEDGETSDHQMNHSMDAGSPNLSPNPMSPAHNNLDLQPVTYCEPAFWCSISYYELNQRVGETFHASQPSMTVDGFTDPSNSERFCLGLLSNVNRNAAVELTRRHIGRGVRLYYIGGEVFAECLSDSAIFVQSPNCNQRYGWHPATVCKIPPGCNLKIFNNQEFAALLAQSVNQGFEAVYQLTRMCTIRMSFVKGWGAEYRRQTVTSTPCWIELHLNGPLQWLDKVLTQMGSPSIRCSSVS
Procedure: NRK52E cells were cultured in DMEM-Ham's medium supplemented with 10% fetal bovine serum. The cells reached at approximately 50% confluence were used for in vitro experiments. Cells were serum-starved for 12 h, and randomized into 4 groups: (1) Controls; (2) GQ-5 only; (3) TGF-β1 only; (4) TGF-β1+GQ-5
(2) GQ-5 only: pre-treated with GQ-5 (2.5 nM) for 1 h, followed with DMEM for 1 h
(3) TGF-β1 only: pre-treated with DMSO for 1 h, followed with TGF-β1 (10 ng/ml) for 1 h
(4) TGF-β1+GQ-5: pre-treated with GQ-5 (2.5 nM) for 1 h, followed with TGF-β1 (10 ng/ml) for 1 h
GQ-5 was dissolved in DMSO. Cells were treated as described. Cell lysates were collected for immunoprecipitation to examine the interaction among TGFβ type I receptor (TβRI), TβRII, Smad3 and Smad2.

**Q.** CCCCCC/C=C\CCCCCCCc1cccc(O)c1O [GQ-5, 3-[(Z)-pentadec-8-enyl]catechol] was tested. Which “TGF-β1-induced Smad3-dependent collagen I promoter activity” value [1] did it give?
**A.** significantly inhibited TGF-β1-induced Smad3-dependent collagen I promoter activity in a dose-dependent manner

**Q.** What about the “Smad3 phosphorylation in renal tissue” value [2] of the same compound?
**A.** significantly inhibited

**Q.** What about the “interaction of Smad3 with TβRI” value [3] of the same compound?
**A.** significantly blocked
